IC50 data for 25 compounds are collected here from patent US20240360082A1, “SUBSTITUTED PYRIDONE COMPOUNDS USEFUL TO TREAT ORTH[…]” (priority 2021, published 2024).

The target of this experiment is influenza A virus minigenome (PB2, PB1, PA, NP proteins) (UniProt P04665). Format: cell-based. The settings on record: read-out: RNP_ Hubei B IC50.
Chain of influenza A virus minigenome (PB2, PB1, PA, NP proteins) (P04665 whole entry): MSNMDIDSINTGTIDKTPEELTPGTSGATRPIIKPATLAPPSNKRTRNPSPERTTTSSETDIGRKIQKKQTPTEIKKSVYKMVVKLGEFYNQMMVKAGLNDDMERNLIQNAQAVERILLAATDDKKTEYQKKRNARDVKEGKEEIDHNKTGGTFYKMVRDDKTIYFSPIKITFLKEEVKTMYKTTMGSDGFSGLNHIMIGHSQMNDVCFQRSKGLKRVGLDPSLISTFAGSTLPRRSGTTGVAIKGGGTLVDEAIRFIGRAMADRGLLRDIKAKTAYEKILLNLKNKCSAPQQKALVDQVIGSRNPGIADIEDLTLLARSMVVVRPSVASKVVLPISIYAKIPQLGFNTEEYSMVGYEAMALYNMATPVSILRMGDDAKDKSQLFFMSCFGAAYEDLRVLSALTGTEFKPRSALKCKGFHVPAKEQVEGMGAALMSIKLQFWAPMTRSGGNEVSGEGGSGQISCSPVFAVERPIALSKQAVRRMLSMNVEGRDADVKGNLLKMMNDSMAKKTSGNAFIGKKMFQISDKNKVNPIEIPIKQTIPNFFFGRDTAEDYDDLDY
As usually defined, the IC50 is the concentration that gives 50% inhibition. Regarding `COCCn1cc(COc2ccc(-c3cc(C(N)=O)c(=O)[nH]c3C(F)(F)F)cc2)cn1` [Example 218, 5-(4-((1-(2-methoxyethyl)-1H-pyrazol-4-yl)methoxy)phenyl)-2-oxo-6-(trifluoromethyl)-1,2-dihydropyridine-3-carboxamide], the IC50 lay in the range of 25 to 50 µM. The figure for `COCCn1nccc1COc1ccc(-c2cc(C(N)=O)c(=O)[nH]c2C(F)(F)F)cc1` [Example 219, 5-(4-((1-(2-methoxyethyl)-1H-pyrazol-5-yl)methoxy)phenyl)-2-oxo-6-(trifluoromethyl)-1,2-dihydropyridine-3-carboxamide] is 25 to 50 µM. The result for `Cn1cc(COc2ccc(-c3cc(C(N)=O)c(=O)[nH]c3C(F)(F)F)cc2)cn1` [Example 220, 5-(4-((1-methyl-1H-pyrazol-4-yl)methoxy)phenyl)-2-oxo-6-(trifluoromethyl)-1,2-dihydropyridine-3-carboxamide] reads 25 to 50 µM; that for `NC(=O)c1cc(-c2ccc(OCc3cnn(CC4CC4)c3)cc2)c(C(F)(F)F)[nH]c1=O` [Example 221, 5-(4-((1-(cyclopropylmethyl)-1H-pyrazol-4-yl)methoxy)phenyl)-2-oxo-6-(trifluoromethyl)-1,2-dihydropyridine-3-carboxamide], 10 to 25 µM; that for `CCn1cc(COc2ccc(-c3cc(C(N)=O)c(=O)[nH]c3C(F)(F)F)cc2)cn1` [Example 222, 5-(4-((1-ethyl-1H-pyrazol-4-yl)methoxy)phenyl)-2-oxo-6-(trifluoromethyl)-1,2-dihydropyridine-3-carboxamide], 25 to 50 µM. For `NC(=O)c1cc(-c2ccc(OCc3ccon3)cc2)c(C(F)(F)F)[nH]c1=O` [Example 223, 5-(4-(isoxazol-3-ylmethoxy)phenyl)-2-oxo-6-(trifluoromethyl)-1,2-dihydropyridine-3-carboxamide], the IC50 fell in the range of 25 to 50 µM. The figure for `Cc1cc(COc2ccc(-c3cc(C(N)=O)c(=O)[nH]c3C(F)(F)F)cc2)no1` [Example 224, 5-(4-((5-methylisoxazol-3-yl)methoxy)phenyl)-2-oxo-6-(trifluoromethyl)-1,2-dihydropyridine-3-carboxamide] is 25 to 50 µM; for `NC(=O)c1cc(-c2ccc(OCC3CCO3)cc2)c(C(F)(F)F)[nH]c1=O` (stereo not shown) [Example 225, 5-(4-(oxetan-2-ylmethoxy)phenyl)-2-oxo-6-(trifluoromethyl)-1,2-dihydropyridine-3-carboxamide] it is 25 to 50 µM; for `NC(=O)c1cc(-c2ccc(OCC3(F)COC3)cc2)c(C(F)(F)F)[nH]c1=O` [Example 226, 5-(4-((3-fluorooxetan-3-yl)methoxy)phenyl)-2-oxo-6-(trifluoromethyl)-1,2-dihydropyridine-3-carboxamide] it is 25 to 50 µM.

In the case of `CC1(COc2ccc(-c3cc(C(N)=O)c(=O)[nH]c3C(F)(F)F)cc2)COC1` [Example 227], the IC50 is 25 to 50 µM. With `CCC1(COc2ccc(-c3cc(C(N)=O)c(=O)[nH]c3C(F)(F)F)cc2)COC1` [Example 228], the IC50 was in the range of 10 to 25 µM.

As for `N#CCC1(COc2ccc(-c3cc(C(N)=O)c(=O)[nH]c3C(F)(F)F)cc2)COC1` [Example 229, 5-(4-((3-(cyanomethyl)oxetan-3-yl)methoxy)phenyl)-2-oxo-6-(trifluoromethyl)-1,2-dihydropyridine-3-carboxamide], the half-inhibitory concentration (IC50) is 25 to 50 µM. The figure for `NC(=O)c1cc(-c2ccc(OCC3CCOC3)cc2)c(C(F)(F)F)[nH]c1=O` (stereo not shown) [Example 231, 2-oxo-5-(4-((tetrahydrofuran-3-yl)methoxy)phenyl)-6-(trifluoromethyl)-1,2-dihydropyridine-3-carboxamide] is 25 to 50 µM; for `NC(=O)c1cc(-c2ccc(OCC3CCCO3)cc2)c(C(F)(F)F)[nH]c1=O` (stereo not shown) [Example 232, 2-oxo-5-(4-((tetrahydrofuran-2-yl)methoxy)phenyl)-6-(trifluoromethyl)-1,2-dihydropyridine-3-carboxamide] it is 10 to 25 µM. For `CN1CC(COc2ccc(-c3cc(C(N)=O)c(=O)[nH]c3C(F)(F)F)cc2)OC1=O` (stereo not shown) [Example 233, 5-(4-((3-methyl-2-oxooxazolidin-5-yl)methoxy)phenyl)-2-oxo-6-(trifluoromethyl)-1,2-dihydropyridine-3-carboxamide], the IC50 lay within 25 to 50 µM. As to `CCN1CC(COc2ccc(-c3cc(C(N)=O)c(=O)[nH]c3C(F)(F)F)cc2)OC1=O` (stereo not shown) [Example 234, 5-(4-((3-ethyl-2-oxooxazolidin-5-yl)methoxy)phenyl)-2-oxo-6-(trifluoromethyl)-1,2-dihydropyridine-3-carboxamide], the half-maximal inhibitory concentration (IC50) lay within 25 to 50 µM. Take `CN1C(=O)OCC1COc1ccc(-c2cc(C(N)=O)c(=O)[nH]c2C(F)(F)F)cc1` (stereo not shown) [Example 235, 5-(4-((3-methyl-2-oxooxazolidin-4-yl)methoxy)phenyl)-2-oxo-6-(trifluoromethyl)-1,2-dihydropyridine-3-carboxamide]: the IC50 lay within 25 to 50 µM. The figure for `NC(=O)c1cc(-c2ccc(OCC3CCCCO3)cc2)c(C(F)(F)F)[nH]c1=O` (stereo not shown) [Example 236, 2-oxo-5-(4-((tetrahydro-2H-pyran-2-yl)methoxy)phenyl)-6-(trifluoromethyl)-1,2-dihydropyridine-3-carboxamide] is 5 to 10 µM.

Take `NC(=O)c1cc(-c2ccc(OCC3COCCO3)c(F)c2)c(C(F)(F)F)[nH]c1=O` (stereo not shown) [Example 239, 5-(4-((1,4-dioxan-2-yl)methoxy)-3-fluorophenyl)-2-oxo-6-(trifluoromethyl)-1,2-dihydropyridine-3-carboxamide]: the IC50 is 10 to 25 µM. Regarding `NC(=O)c1cc(-c2ccc(OCC3COCCO3)c(C3CC3)c2)c(C(F)(F)F)[nH]c1=O` (stereo not shown) [Example 243, 5-(4-((1,4-dioxan-2-yl)methoxy)-3-cyclopropylphenyl)-2-oxo-6-(trifluoromethyl)-1,2-dihydropyridine-3-carboxamide], the IC50 lay within 1 to 5 µM. On to `CN1CCOCC1COc1ccc(-c2cc(C(N)=O)c(=O)[nH]c2C(F)(F)F)cc1` (stereo not shown) [Example 247, 5-(4-((4-methylmorpholin-3-yl)methoxy)phenyl)-2-oxo-6-(trifluoromethyl)-1,2-dihydropyridine-3-carboxamide], for which the IC50 is 25 to 50 µM. As for `NC(=O)c1cc(-c2ccc(OCC3COCCN3C3CC3)cc2)c(C(F)(F)F)[nH]c1=O` (stereo not shown) [Example 248, 5-(4-((4-cyclopropylmorpholin-3-yl)methoxy)phenyl)-2-oxo-6-(trifluoromethyl)-1,2-dihydropyridine-3-carboxamide], the IC50 was 5 to 10 µM.

Consider `CCN1CCOCC1COc1ccc(-c2cc(C(N)=O)c(=O)[nH]c2C(F)(F)F)cc1` (stereo not shown) [Example 249, 5-(4-((4-ethylmorpholin-3-yl)methoxy)phenyl)-2-oxo-6-(trifluoromethyl)-1,2-dihydropyridine-3-carboxamide], for which the IC50 was 5 to 10 µM.

For `NC(=O)c1cc(-c2ccc(OCC3COCC(=O)N3)cc2)c(C(F)(F)F)[nH]c1=O` (stereo not shown) [Example 250, 2-oxo-5-(4-((5-oxomorpholin-3-yl)methoxy)phenyl)-6-(trifluoromethyl)-1,2-dihydropyridine-3-carboxamide], the IC50 was in the range of 25 to 50 µM. The result for `COCCOc1ccc(-c2cc(C(N)=O)c(=O)[nH]c2C(F)(F)F)cc1` [Example 254, 5-(4-(2-methoxyethoxy)phenyl)-2-oxo-6-(trifluoromethyl)-1,2-dihydropyridine-3-carboxamide] reads 25 to 50 µM.
